Measured values from paper PMC5397431, “Multigeneration toxicity of imidacloprid and thiacloprid to Folsomia candida” (Ecotoxicology (London, England), 2017).

Tested on: Folsomia candida
Experiment: Literature data on toxicity to Folsomia candida in soil
Type: in vivo
Details: 28-day, artificial soil; 10% OM (sphagnum peat), pure; recalculated with logistic dose-response model from figures; ref Reynolds (2008)
Description: The LC50 and EC50 values for the toxicity of imidacloprid found in this study are within the range set by previous studies in our lab (Table S3). The values reported by Idinger ([2002]) for the toxicity of imidacloprid in the commercial formulation Confidor 70WP, tested in artificial soil, also are in the same range. Some LC50s reported in the literature, however, are somewhat higher, which could be explained by several factors. […] The use of an artificial soil with higher OM contents probably also explains the somewhat higher LC50 and EC50 values reported by Reynolds ([2008]). […] For two commercial formulations, EFSA ([2008]) found lower NOECs of 0.2–0.32 mg a.s./kg. Laboratory conditions such as temperature and light/dark regime may affect the metabolism of test animals, leading to differential toxicity of imidacloprid.
Table S3. Overview of data on the toxicity of imidacloprid and thiacloprid to Folsomia candida. All LC50 and EC50 values are in mg/kg dry soil and all tests were carried out on a 28-day exposure period. OM = organic matter.

O=[N+]([O-])NC1=NCCN1Cc1ccc(Cl)nc1 [Imidacloprid, imidacloprid]
EC50, recalculated: 0.26^& mg/kg dry soil
LC50, recalculated: 0.86^& mg/kg dry soil
